From patent publication US11639332B2, “Methods and compositions of isoindoline-1,3-dione and isoindole prodrugs useful for treating cancer, ulcerative colitis and related inflammatory diseases” (AMGEN (EUROPE) GMBH, priority 2018, dated 2023)
Where “and” joins values, the source holds several entries; their conditions need not be identical. Equal values may be shown once.

Tested on: Trinitrobenzenesulfonic Acid (TNBS) Rat Model of Colonic Inflammation
Assay: Trinitrobenzenesulfonic acid (TNBS) rat model of colonic inflammation, oral treatment Days 1-6, evaluation Day 7
Type: in vivo, Sprague-Dawley rats
Parameters: key to Average Colonic Score: sum of adhesions, strictures, ulcers and wall thickness scores
Method: In Vivo Efficacy of PDE4 Inhibitor Prodrug in the Trinitrobenzenesulfonic Acid (TNBS) Rat Model of Colonic Inflammation
2. 1.62 g of prodrug from Example 2 (WB301), lot 2 (MW 587.12) in a clear 20 mL glass vial (orange material) which was stored at 4-8° C.
38 Sprague-Dawley rats (Harlan Sprague-Dawley, Inc. male, PO #599229, R #3450, 200-220 g) were received, individually examined and housed in nine cages of four rats each and one cage containing two rats. No clinical signs of disease or distress were observed. The rats were placed in quarantine with daily inspections. The rats were ear notched (SOP 800) for identification purposes, weighed (RESULTS), and sorted into four treatment groups of eight rats each based upon average body weight. The rats were individually examined and found to be free of any clinical signs of disease or distress. No deaths were recorded during the quarantine period. The rats were released to routine maintenance.
A 16 mg/ml TNBS solution was prepared be adding 2.729 ml picrylsulfonic acid solution (1 M, FLU KA, Cat. 92822, lot CDBB6609V) to 22.271 ml de-ionized water (dH20) and 25 ml 100% ethanol (200 proof, Sigma, Cat. E7023, lot SHBH3633V).
The rats were weighed (RESULTS), anesthetized (SOP1810) and Groups 1-4 were intra-rectally instilled with 4 ml/kg TNBS solution (64 mg/kg), the anus was pinched closed and the rat held inverted for one minute.
400 mg (-)riboflavin was dissolved in 40 ml DMSO (Sigma, Cat. D5879, lot 16K0127) by sonication in a 40° C. water bath for 20 minutes in an amber glass bottle, followed by storage at room temperature overnight to prepare a 10 mg/ml yellow solution.
135 mg NaOH (Fisher Scientific, Cat. S320, lot 066620) was dissolved in 100 ml dH2O to prepare a 1.35 mg/ml solution. 128.46 mg prednisolone 21-hemisuccinate sodium salt (Sigma, Cat. P4153, lot BCBB6136V, salt factor 1.339) was dissolved in 9.59 ml (-)riboflavin/DMSO followed by addition of 9.59 ml PEG400 (Sigma, Cat. 91893, lot BCBB7720). 28.781 aqueous NaOH was added with sonication to prepare a 2 mg/ml solution for Group 4. 44 mg WB301 was vortexed in 2.19 ml (-)riboflavin/DMSO to yield an orange solution followed by addition of 2.19 ml PEG400. 6.621 ml aqueous NaOH was added with sonication to prepare a 4 mg/ml solution for Group 1. 132 mg WB301 was vortexed in 2.19 ml (-)riboflavin/DMSO to yield an orange solution followed by addition of 2.19 ml PEG400. 6.621 ml aqueous NaOH was added with sonication to prepare a 12 mg/ml solution for Group 2. 6.6 mg apremilast was vortexed in 2.2 ml (-)riboflavin/DMSO to yield an orange solution followed by addition of 6.6 ml PEG400. 2.2 ml dH2O was added to prepare a 0.6 mg/ml solution for Group 3.
The rats were weighed (RESULTS) and daily oral (PO, SOP 1651) dosing at 5 ml/kg was initiated as in TABLE 1.
The rats were weighed (RESULTS) and the animals were dosed as described above daily. WB301 and apremilast solutions were prepared fresh daily as described above.
The rats were weighed (RESULTS) anesthetized, a midline incision was made in the abdomen and the colon was evaluated for adhesions and stricture (RESULTS). The colon was removed and the length recorded (RESULTS). A midline incision was made the entire length of the colon, the contents removed and the colon weight and colon wall thickness recorded (RESULTS). A section of the colon was preserved in 20 volumes of 10% neutral buffered formalin (Richard-Allan Scientific, Cat. 5701, lot 378532, exp07/2020). The carcasses were disposed of.
3) involving several bowel loops=2
4) severe, proximal dilatation=3
2) linear ulceration <1 cm=1
3) two linear ulcers <1 cm=2
4) more sites of ulceration or one large ulcer=3

[1] = group mean, Group 3, 3 mg/kg PO daily, Day 7
[2] = group mean, Group 3, 3 mg/kg PO daily, Day 7, score 0-2
[3] = group mean, Group 3, 3 mg/kg PO daily, Day 7, score 0-3
[4] = individual rats, Group 3, 3 mg/kg PO daily, Day 7

## Nc1ccc(O)c(C(=O)O)c1 [Example 5-ASA, 5-aminosalacyclic acid, reference compound]
Rat TNBS model, stated without data
  activity in the TNBS model: inactive

## CCOc1cc([C@@H](CS(C)(=O)=O)N2C(=O)c3cccc(NC(C)=O)c3C2=O)ccc1OC [Apremilast, apremilast, reference compound]
Group 3, 3 mg/kg daily oral
  macroscopic disease scores: improvement of the macroscopic disease scores
  study day on which rats began to recover from TNBS-induced weight loss: 6 days
Group 3, 3 mg/kg daily oral, assuming a colonic score of 10 for vehicle-treated rats
  reduction in overall colonic score: 25%
Group 3, 3 mg/kg daily oral, through DAY 5
  body weight loss: 11%
[1]
  Average # Ulcers: 1
  Average Colon Length: 13.1 cm
  Average Colon Weight: 4.793 g
  Average Colonic Score: 7.6
  Average Ratio (colon length/colon weight): 3.470 cm/g
  Average Ulcer Length: 6.3 cm
  Average Wall Thickness: 3.0 mm
[2]
  Average Adhesions: 1.3
  Average Colon Wall Thickness, score: 1.5
[3]
  Average Strictures: 1.9
  Average Ulcers, score: 3.0
Group mean, Group 3, 3 mg/kg PO daily, study day 0, day of TNBS, before dosing
  Average Rat Weight: 214 g
Group mean, Group 3, 3 mg/kg PO daily, study day 1, before first dose
  Average Rat Weight: 207 g
Group mean, Group 3, 3 mg/kg PO daily, study day 2
  Average Rat Weight: 198 g
Group mean, Group 3, 3 mg/kg PO daily, study day 3
  Average Rat Weight: 195 g
Group mean, Group 3, 3 mg/kg PO daily, study day 4
  Average Rat Weight: 190 g
Group mean, Group 3, 3 mg/kg PO daily, study day 5
  Average Rat Weight: 190 g
Group mean, Group 3, 3 mg/kg PO daily, study day 6
  Average Rat Weight: 194 g
Group mean, Group 3, 3 mg/kg PO daily, study day 7
  Average Rat Weight: 201 g
Group mean, Group 3, 3 mg/kg PO daily, study day −3, before TNBS and dosing
  Average Rat Weight: 215 g
[4]
  # Ulcers: 1
  Colon Length: 10.0 cm and 15.5 cm and 12.0 cm (2×) and 11.5 cm and 13.0 cm and 15.0 cm and 16.0 cm
  Colon Weight: 3.608 g and 7.577 g and 2.860 g and 3.000 g and 4.462 g and 9.199 g and 6.085 g and 1.550 g
  Ratio (colon length/colon weight): 2.772 cm/g and 2.046 cm/g and 4.196 cm/g and 3.833 cm/g and 2.913 cm/g and 1.631 cm/g and 2.629 cm/g and 7.742 cm/g
  Ulcer Length: 6.5 cm (2×) and 5.5 cm and 6.0 cm and 6.4 cm and 8.0 cm and 7.5 cm and 4.0 cm
  Wall Thickness: 2.5 mm (3×) and 3.5 mm (2×) and 3.7 mm and 4.0 mm and 1.5 mm
Individual rats, Group 3, 3 mg/kg PO daily, Day 7, less than 1 mm=0, 1-3 mm=1, >3 mm=2
  Colon Wall Thickness, score: 1 (4×) and 2 (4×)
Individual rats, Group 3, 3 mg/kg PO daily, Day 7, none=0, linear ulceration <1 cm=1, two linear ulcers <1 cm=2, more sites or one large ulcer=3
  Ulcers, score: 3
Individual rats, Group 3, 3 mg/kg PO daily, Day 7, score none=0, mild=1, moderate=2, severe, proximal dilatation=3
  Strictures: 1 (3×) and 3 (4×) and 0
Individual rats, Group 3, 3 mg/kg PO daily, Day 7, score none=0, minimal=1, involving several bowel loops=2
  Adhesions: 1 (4×) and 2 (3×) and 0
Individual rats, Group 3, 3 mg/kg PO daily, Day 7, sum of adhesions, strictures, ulcers and wall thickness scores
  Colonic Score: 6 and 10 (2×) and 7 (2×) and 8 and 9 and 4
Individual rats, Group 3, 3 mg/kg PO daily, study day 0, day of TNBS, before dosing
  Rat Weight: 218 g and 213 g and 206 g and 220 g and 205 g and 217 g (2×) and 214 g
Individual rats, Group 3, 3 mg/kg PO daily, study day 1, before first dose
  Rat Weight: 210 g and 213 g and 198 g and 214 g (2×) and 197 g and 204 g and 206 g
Individual rats, Group 3, 3 mg/kg PO daily, study day 2
  Rat Weight: 198 g and 203 g (2×) and 183 g and 187 g and 205 g and 193 g and 214 g
Individual rats, Group 3, 3 mg/kg PO daily, study day 3
  Rat Weight: 190 g and 200 g and 180 g (2×) and 198 g (2×) and 187 g and 225 g
Individual rats, Group 3, 3 mg/kg PO daily, study day 4
  Rat Weight: 187 g (2×) and 200 g and 170 g and 188 g and 173 g and 183 g and 234 g
Individual rats, Group 3, 3 mg/kg PO daily, study day 5
  Rat Weight: 189 g and 200 g and 167 g and 182 g (2×) and 172 g and 185 g and 244 g
Individual rats, Group 3, 3 mg/kg PO daily, study day 6
  Rat Weight: 212 g and 202 g and 163 g and 176 g and 172 g and 186 g and 188 g and 250 g
Individual rats, Group 3, 3 mg/kg PO daily, study day 7
  Rat Weight: 236 g and 210 g and 178 g (2×) and 177 g and 179 g and 194 g and 256 g
Individual rats, Group 3, 3 mg/kg PO daily, study day −3, before TNBS and dosing
  Rat Weight: 218 g and 212 g and 210 g and 219 g and 209 g and 220 g and 217 g and 213 g
